The values below come from patent US20230364032A1, “USE OF 2-HOBA TO TREAT ATHEROSCLEROSIS” (Vanderbilt University, priority 2020, published 2023).

The subject of assay [1] is F2-IsoP. Kind of assay: Urine F2-isoprostane levels (LC/MS/MS). The class given is in vivo, mouse. To be noted: Ldlr−/− mice, western diet 16 weeks, 1 g/L; vehicle, 4-HOBA, 2-HOBA compared. The method, then: The urine F2-IsoP levels were measured by LC/MS/MS) from Ldlr^−/− mice consuming a western diet for 16 weeks and treated with 1 g/L 2-HOBA, 4-HOBA, or vehicle. N=5 or 6 per group, p=0.43, Kruskal-Wallis test. Urinary creatinine levels were measured for normalization.

For assay [2], the system named is IsoLG. Kind of assay: IsoLG-HOBA adducts/metabolites in liver and heart (LC/MS). It counts as in vivo, mouse. To be noted: for IsoLG-HOBA adducts in hearts and livers: Ldlr−/− mice after 16 weeks on a western diet. The method, then:
To generate an internal standard for quantitation, 10 molar equivalents of the heavy isotope labeled 2-HOBA, [^2H4]2-HOBA, was reacted with synthetic IsoLG^69 overnight in 1 mM triethylammonium acetate buffer to form IsoLG-2-HOBA adducts, and the adducts separated from unreacted [^2H4]2-HOBA and IsoLG by solid phase extraction (Oasis HLB). The isolated reaction products of IsoLG-2-HOBA were scanned by mass spectrometer (Waters Xevo-TQ-Smicro triple quadrupole MS) operating in limited mass scanning mode to identify major products. Additionally, precursor scanning with the product ion set at m/z 111.1 was used to confirm that the detected products were [^2H4]2-HOBA adducts. […] Similar species were seen when IsoLG was reacted with non-labeled 2-HOBA and precursor scanning using product ion m/z 107.1 To identify potential 2-HOBA adducts in tissue of treated animals, the present inventors first generated a list of 18 probable IsoLG-HOBA species [pyrrole, lactam, hydroxylactam based on the in vitro reactions of IsoLG and 2-HOBA and then the anhydro-, dinor-, dinor/anhydro-, tetranor-, and keto-(from oxidation of hydroxyl group) metabolites of each of these three adducts based on previous metabolism studies with prostaglandins and isoprostanes]. The present inventors then analyzed liver homogenate from a 2-HOBA treated mouse using LC/MS with the mass spectrometer operating in positive ion precursor scanning mode and the product ion set to m/z 107.1 and collision energy at 20 eV and looked for the presence of any of these precursor ions. […] M2 m/z 440.3, which mass is consistent with the pyrrole adduct, and M3 m/z 454.3 which mass is consistent with the anhydro-hydroxylactam adduct or the keto-lactam adduct. When then sought to quantify the amount of the putative IsoLG-HOBA adducts in heart and liver samples as there was not sufficient aorta sample remaining from other analysis available to do this analysis.
For these experiments, liver or heart samples from Ldlr^−/− mice treated with 2-HOBA or 4-HOBA were homogenized in 0.5 M Tris buffer solution pH 7.5 containing mixture of antioxidants (pyridoxamine, indomethacin, BHT, TCEP). Total amount of protein in homogenate was determined for normalization. 1 pmol IsoLG-[^2H4]2-HOBA was then added to each homogenate sample as internal standard, the HOBA adducts extracted with ethyl acetate, dried, dissolved in solvent 1 (water with 0.1% acetic acid) and analyzed by LC/MS using Waters Xevo-TQ-Smicro triple quadrupole mass spectrometer operating in positive ion multiple reaction monitoring (MRM) mode, monitoring the following transitions: m/z 438.3→107.1@20 eV for M1; m/z 440→107.1@20 eV for M2; m/z 454→107.1@20 eV for M3; and m/z 476.3→111.1@20 eV for IsoLG-[^2H4]2-HOBA hydroxylactam. Desolvati on temperature: 500° C.; source temperature: 150° C.; capillary voltage: 5 kV, cone voltage: 5 V; cone gas flow 1 L/h; desolvation gas flow 1000 L/h. HPLC condition were as follows: Solvent 1: water with 0.1% acetic acid; Solvent 2, methanol with 0.1% acetic acid; column: Phenomenex Kinetex C8 50×2.1 mm 2.6 u 100 Å, flow rate: 0.4 mL/min; gradient: starting condition 10% B with gradient ramp to 100% B over 3.5 min, hold for 0.5 min, and return to starting conditions over 0.5 min. Abundance for each metabolite was calculated based on the ratio of peak height versus that of internal standard.

Where [3] appears, read: Ldlr−/− mice, Western diet 16 weeks, continuously treated, Mean ± SEM.

“Also recorded” adds a separate entry of the source.

With `NCc1ccccc1O` [2-HOBA, 2-hydroxybenzylamine], the “urine F2-IsoP levels” value in assay [1] is reported as “not significantly different; also recorded: does not impact”. For the same compound, the “IsoLG-HOBA adducts in hearts and livers” value in assay [2] was “present”. Also, in assay [2] (setting [3]), the “IsoLG-HOBA-M1 level, heart” value turned out to be 0.74 ± 0.21 nmol/kg; the “IsoLG-HOBA-M1 level, liver” value is listed as 0.88 ± 0.14 nmol/kg; the “IsoLG-HOBA-M2 level, heart” value came out at 0.57 ± 0.35 nmol/kg; the “IsoLG-HOBA-M2 level, liver” value was determined as 0.82 ± 0.12 nmol/kg. In assay [2] (setting [3]), the “IsoLG-HOBA-M3 level, heart” value was 0.24 ± 0.17 nmol/kg and the “IsoLG-HOBA-M3 level, liver” value turned out to be 4.17 ± 1.85 nmol/kg.
As for `NCc1ccc(O)cc1` [4-HOBA, 4-hydroxybenzylamine, reference compound], in assay [1], the “urine F2-IsoP levels” value is “not different”. Moreover, in assay [2], the “IsoLG-HOBA adducts in hearts and livers” value is recorded as “nondetectable”.
